# Measurements as given in US9346761B2, “Arginine methyltransferase inhibitors and uses thereof” (Epizyme, Inc., priority 2013, dated 2016).
# Molecular target: T1, Human CARM1 (PRMT4) (Homo sapiens, UniProt Q86X55)
# T1 construct: Flag-CARM1-His was eluted with 200 ug/ml FLAG peptide in buffer A; made in house; host or cells: HEK 293F cells (BacMam virus, pFastBacMam)
# T1 sequence (Q86X55 with tags, fused parts or gaps isoform Q86X55-1): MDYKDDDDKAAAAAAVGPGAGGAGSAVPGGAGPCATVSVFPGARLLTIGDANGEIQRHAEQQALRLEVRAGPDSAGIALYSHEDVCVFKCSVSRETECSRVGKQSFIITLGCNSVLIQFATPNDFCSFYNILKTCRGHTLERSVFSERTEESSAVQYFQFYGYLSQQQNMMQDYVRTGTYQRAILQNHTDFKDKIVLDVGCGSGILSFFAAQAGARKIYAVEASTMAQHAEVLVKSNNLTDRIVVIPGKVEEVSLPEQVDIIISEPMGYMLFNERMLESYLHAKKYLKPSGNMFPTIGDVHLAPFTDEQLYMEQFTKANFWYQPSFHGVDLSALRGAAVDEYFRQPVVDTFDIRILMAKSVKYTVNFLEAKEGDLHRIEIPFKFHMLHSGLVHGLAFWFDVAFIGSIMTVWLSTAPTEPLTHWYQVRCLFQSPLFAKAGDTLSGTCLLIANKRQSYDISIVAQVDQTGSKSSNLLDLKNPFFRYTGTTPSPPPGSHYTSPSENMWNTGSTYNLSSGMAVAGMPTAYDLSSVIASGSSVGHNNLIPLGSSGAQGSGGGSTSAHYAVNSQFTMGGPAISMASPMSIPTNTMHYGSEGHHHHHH
# Assay: CARM1 biochemical assay (3H-SAM Flashplate, peptide substrate)
# Summary of the method: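 Methylation of a biotin-tagged H3 residues 16-30 peptide by recombinant CARM1 tracked via 3H-SAM incorporation, read as scintillation counts after streptavidin Flashplate capture. Compound and enzyme sat 30 min at room temperature first; unlabelled SAM at 300 uM final stopped the reaction. IC50 from Hill fits of % inhibition normalised to SAH and DMSO controls.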
row,SMILES,IC50 [µM]
1,CN(CCN)Cc1c[nH]nc1-c1ccc(OC(F)F)cc1 [Compound 94],0.101 to 1
2,CN(CCN)Cc1cn(CC(O)CO)nc1-c1ccc(F)cc1 (stereo not shown) [Compound 76],> 10
3,CCCN(CCN)Cc1c[nH]nc1-c1ccc(F)cc1 [Compound 63],> 10
4,CN(CCN)Cc1cn(CCO)nc1-c1ccc(F)cc1 [Compound 66],3.01 to 10
5,CNCCN(C)Cc1c[nH]nc1-c1ccc(OC)cc1OC [Compound 55],3.01 to 10
6,CN(CCN)Cc1c(-c2ccc(C#N)cc2)cnn1C [Compound 84],> 10
7,CNCCN(C)Cc1c[nH]nc1-c1ccccc1O [Compound 35],> 10
8,CNCCN(C)Cc1c[nH]nc1-c1ccccc1Oc1ccccc1 [Compound 36],> 10
9,CC(C)Oc1ccc(-c2n[nH]cc2CN(C)CCN)cc1 [Compound 67],0.101 to 1
10,CNCCN(C)Cc1c[nH]nc1-c1ccc(-c2ccccc2)cc1 [Compound 47],< 0.1
11,CN(CCN)Cc1c[nH]nc1-c1cccc(C#N)c1 [Compound 70],3.01 to 10
12,CNCCN(C)Cc1c[nH]nc1-c1c(OC)cccc1OC [Compound 56],> 10
13,CNCCN(C)Cc1c[nH]nc1-c1ccccc1F [Compound 48],3.01 to 10
14,CN(CCN)Cc1c[nH]nc1-c1cccc(F)c1 [Compound 71],0.101 to 1
15,Cc1ccc(-c2n[nH]cc2CN(C)CCN)c(Cl)c1 [Compound 90],3.01 to 10
16,COc1ccc(-c2n[nH]cc2CN(C)CCN)c(OC)c1 [Compound 87],3.01 to 10
17,CN(CCN)Cc1c[nH]nc1-c1ccccc1F [Compound 72],3.01 to 10
18,CNCCN(C)Cc1cnn(CC2CCOCC2)c1-c1ccc(F)cc1 [Compound 12],3.01 to 10
19,CNCCN(C)Cc1c[nH]nc1-c1ccc(C(=O)c2ccccc2)cc1 [Compound 45],< 0.1
20,COCCn1cc(CN(C)CCN(C)C)c(-c2ccc(F)cc2)n1 [Compound 61],> 10
21,CNCCN(C)Cc1cnn(C)c1-c1ccc(F)cc1 [Compound 10],1.01 to 3
22,CNCCN(C)Cc1c[nH]nc1-c1cccc2ccccc12 [Compound 57],1.01 to 3

row,SMILES,IC50 [µM]
1,CN(CCN)Cc1c[nH]nc1-c1ccc(OC(F)(F)F)cc1 [Compound 93],1.01 to 3
2,NCCN(Cc1c[nH]nc1-c1ccc(F)cc1)C1CC1 [Compound 78],> 10
3,CN(CCN)Cc1cnn(CC2COC2)c1-c1ccc(F)cc1 [Compound 80],> 10
4,CNCCN(C)Cc1c[nH]nc1-c1cc(Cl)ccc1OC [Compound 53],> 10
5,CN(CCN)Cc1c[nH]nc1-c1ccc(C#N)cc1 [Compound 68],0.101 to 1
6,CNCCN(C)Cc1c[nH]nc1-c1ccc(CC#N)cc1 [Compound 34],1.01 to 3
7,CNCCN(C)Cc1cn(CC2CCOCC2)nc1-c1ccc(F)cc1 [Compound 11],> 10
8,CNCCN(C)Cc1c[nH]nc1-c1cccc(N)c1 [Compound 32],1.01 to 3
9,CN(CCN)Cc1c[nH]nc1-c1ccc(Cl)cc1Cl [Compound 86],3.01 to 10
10,CNCCN(C)Cc1c[nH]nc1-c1ccc(OC)c(F)c1 [Compound 52],1.01 to 3
11,CCN(CCNC)Cc1c[nH]nc1-c1ccc(F)cc1 [Compound 9],1.01 to 3
12,CN(CCN)Cc1n[nH]cc1-c1ccc(F)cc1 [Compound 69],3.01 to 10
13,CN(CCN)Cc1c[nH]nc1-c1ccc(N2CCNCC2)cc1 [Compound 82],3.01 to 10
14,CN(CCN)Cc1cn[nH]c1-c1ccc(F)cc1 [Compound 1],1.01 to 3
15,CN(CCN)Cc1cn(CC2COC2)nc1-c1ccc(F)cc1 [Compound 79],> 10
16,CNCCN(C)Cc1c[nH]nc1-c1ccc(F)c(F)c1 [Compound 51],0.101 to 1
17,CNCCN(C)Cc1c[nH]nc1-c1cccc(NC(C)=O)c1 [Compound 42],1.01 to 3
18,CNCCN(C)Cc1c[nH]nc1-c1cccc(OC(F)(F)F)c1 [Compound 39],1.01 to 3
19,CCNCCN(C)Cc1c[nH]nc1-c1ccc(F)cc1 [Compound 60],> 10
20,CN(CCN)Cc1cn(C2COC2)nc1-c1ccc(F)cc1 [Compound 77],3.01 to 10
21,CN(CCN)Cc1c[nH]nc1-c1ccc(F)cc1Cl [Compound 89],3.01 to 10
22,CN(CCN)Cc1cnn(CCO)c1-c1ccc(F)cc1 [Compound 65],3.01 to 10

row,SMILES,IC50 [µM]
1,CNCCN(C)Cc1c[nH]nc1-c1cc(F)ccc1F [Compound 50],3.01 to 10
2,COCCn1ncc(CN(C)CCN(C)C)c1-c1ccc(F)cc1 [Compound 64],> 10
3,CCN(CCN)Cc1c[nH]nc1-c1ccc(F)cc1 [Compound 62],0.101 to 1
4,CN(CCN)Cc1cnn(C2COC2)c1-c1ccc(F)cc1 [Compound 81],1.01 to 3
5,CNCCN(C)Cc1c[nH]nc1-c1cccc(C(C)=O)c1 [Compound 44],1.01 to 3
6,CNCCN(C)Cc1c[nH]nc1-c1ccc(F)cc1F [Compound 49],3.01 to 10
7,CN(CCN)Cc1c[nH]nc1-c1ccccc1 [Compound 73],1.01 to 3
8,CNCCN(C)Cc1cn(CCC(O)CO)nc1-c1ccc(F)cc1 (stereo not shown) [Compound 59],3.01 to 10
9,CN(CCN)Cc1nn(C)cc1-c1ccc(C#N)cc1 [Compound 83],1.01 to 3
10,Cc1ccc(Cl)c(-c2n[nH]cc2CN(C)CCN)c1 [Compound 91],> 10
11,CNCCN(C)Cc1c[nH]nc1-c1cccc(OC)c1OC [Compound 54],> 10
12,CN(CCN)Cc1cnn(C)c1-c1ccc(F)cc1 [Compound 4],0.101 to 1
13,CNCCN(C)Cc1c[nH]nc1-c1ccccc1-c1ccccc1 [Compound 46],> 10
14,Cc1ccc(-c2n[nH]cc2CN(C)CCN)c(C)c1 [Compound 88],3.01 to 10
15,CC(C)N(CCN)Cc1c[nH]nc1-c1ccc(F)cc1 [Compound 75],> 10
16,CNCCN(C)Cc1c[nH]nc1-c1ccccc1NS(C)(=O)=O [Compound 41],> 10
17,CN(CCN)Cc1c[nH]nc1-c1ccc(C(C)(C)C)cc1 [Compound 74],3.01 to 10
18,CN(CCN)Cc1c[nH]nc1-c1ccc(C(F)(F)F)cc1 [Compound 92],0.101 to 1
19,CNCCN(C)Cc1c[nH]nc1-c1ccc2ccccc2c1 [Compound 58],0.101 to 1
20,CN(CCN)Cc1c[nH]nc1-c1ccc(C(F)(F)F)cc1C(F)(F)F [Compound 85],> 10
